Biological target: T1, Dimer of Gag-Pol polyprotein [489-587] (Human immunodeficiency virus 1, UniProt P12497)
T1 construct: 489-587
Assay: Protease Inhibition Assay
Details: pH 6.5; 37 °C
Protocol: Sensitivity of HIV-1 protease activity to protease inhibitors was determined by a peptide substrate cleavage assay. Protease products were analyzed on a reverse-phase high-pressure liquid chromatograph.

SMILES: CCCCCCc1cc2c(cc1O)OC(=O)C(C(c1ccccc1)c1c(O)c3cc(CCCCCC)c(O)cc3oc1=O)C2O (stereo not drawn)
- IC50: 0.32 µM

SMILES: O=c1oc2cccc(O)c2c(O)c1Cc1ccccc1
- IC50: 6 µM

SMILES: O=C1C(=O)c2ccccc2C(=O)C1=C(c1ccc(C(C2C(=O)C(=O)c3ccccc3C2=O)C2C(=O)C(=O)c3ccccc3C2=O)cc1)c1c(O)c(O)c2ccccc2c1O (stereo not drawn) [2-({4-[bis(3-hydroxy-1,4-dioxo-1,4-dihydronaphthalen-2-yl)methyl]phenyl}(3-hydroxy-1,4-dioxo-1,4-dihydronaphthalen-2-yl)methyl)-3-hydroxy-1,4-dihydronaphthalene-1,4-dione]
- IC50: 0.75 µM

SMILES: O=C1C(=O)c2ccccc2C(=O)C1=C(c1ccc(Cl)cc1Cl)c1c(O)c(O)c2ccccc2c1O [2-[(2,4-dichlorophenyl)(3-hydroxy-1,4-dioxo-1,4-dihydronaphthalen-2-yl)methyl]-3-hydroxy-1,4-dihydronaphthalene-1,4-dione]
- IC50: 24 µM

SMILES: CC(=O)NC(Cc1ccsc1)(C(=O)O)C(=O)O [2-acetamido-2-(thiophen-3-ylmethyl)propanedioic acid]
- IC50: 23 µM

SMILES: CCCC(=O)c1c(O)c(C)c(O)c(CC2C(=O)C(C(=O)CCC)C(=O)C(C)(C)C2=O)c1O (stereo not drawn) [2-butanoyl-6-[(3-butanoyl-2,4,6-trihydroxy-5-methylphenyl)methyl]-3,5-dihydroxy-4,4-dimethylcyclohexa-2,5-dien-1-one]
- IC50: 26 µM

SMILES: O=c1oc2ccccc2c(O)c1C(c1ccc(C(c2c(O)c3ccccc3oc2=O)c2c(O)c3ccccc3oc2=O)cc1)c1c(O)c2ccccc2oc1=O [3-({4-[bis(4-hydroxy-2-oxo-2H-chromen-3-yl)methyl]phenyl}(4-hydroxy-2-oxo-2H-chromen-3-yl)methyl)-4-hydroxy-2H-chromen-2-one]
- IC50: 1.7 µM

SMILES: O=C1C2=C(C(=O)c3ccccc31)C(O)(S(=O)(=O)O)C(O)(S(=O)(=O)O)C1N=CC=CC21 (stereo not drawn) [11,12-dihydroxy-5,10-dioxo-4a,5,10,11,12,12a-hexahydro-1-azatetraphene-11,12-disulfonic acid]
- IC50: 2 µM

SMILES: CC1(C)CC[C@]2(C(=O)O)CC[C@@]3(C)C(=CC[C@H]4[C@@]5(C)C[C@H](O)[C@H](O)[C@](C)(C(=O)O)[C@H]5CC[C@]43C)[C@@H]2C1 [(2S,3R,4R,4aS,6aR,6bR,8aS,12aS,14aS,14bR)-2,3-dihydroxy-4,6a,6b,11,11,14b-hexamethyl-1,2,3,4,4a,5,6,6a,6b,7,8,8a,9,10,11,12,12a,14,14a,14b-icosahydropicene-4,8a-dicarboxylic acid]
- IC50: 35 µM

SMILES: C[C@]12CCC(=O)C=C1CC[C@@H]1[C@H]2[C@@H](O)C[C@@]2(C)[C@@H]1CC[C@]2(O)C(=O)COC(=O)CCC(=O)O [Cancer Chemotherapy National Service Center (CCNSC) compound 7576]
- IC50: 27 µM

SMILES: CC(C)CC(NC(=O)OCc1ccccc1)(C(=O)O)C(=O)O [Cancer Chemotherapy National Service Center (CCNSC) compound 20143]
- IC50: 17 µM

SMILES: O=C1Oc2ccccc2C(O)C1Sc1c(O)c2ccccc2oc1=O (stereo not drawn) [Cancer Chemotherapy National Service Center (CCNSC) compound 41234]
- IC50: 21 µM

SMILES: CC(=O)OC1CCC2(C)C(C)C(C)CCC2(O)C1O (stereo not drawn) [Cancer Chemotherapy National Service Center (CCNSC) compound 112500]
- IC50: 16 µM

SMILES: O=c1oc2c(-c3ccccc3)cccc2c(O)c1-c1ccccc1 [Cancer Chemotherapy National Service Center (CCNSC) compound 251150]
- IC50: 13 µM

SMILES: O=c1oc2ccccc2c(O)c1-c1ccccc1 [Cancer Chemotherapy National Service Center (CCNSC) compound 251152]
- IC50: 42 µM

SMILES: O=c1oc2ccccc2c(O)c1C(c1ccc2c(c1)OCO2)c1c(O)c2ccccc2oc1=O [Cancer Chemotherapy National Service Center (CCNSC) compound 373937]
- IC50: 30 µM

SMILES: CC(C)c1cccc(C(C)C)c1NC(=O)C(=O)CC(=O)CC(c1ccccc1)c1c(O)c2ccccc2oc1=O (stereo not drawn) [N-[2,6-bis(propan-2-yl)phenyl]-6-(4-hydroxy-2-oxo-2H-chromen-3-yl)-2,4-dioxo-6-phenylhexanamide]
- IC50: 31 µM

SMILES: O=C(Oc1ccccc1)N(CCO)C(c1ccccc1)C(O)c1ccccc1 (stereo not drawn) [phenyl N-(2-hydroxy-1,2-diphenylethyl)-N-(2-hydroxyethyl)carbamate]
- IC50: 32 µM

From BindingDB's records for doi:10.1021/jm950874+ (National Institutes of Health, 1996)
